In brackets after ≈: the same amount, converted by molar mass.
Experiment: solubility in water
Assay type: physicochemical
Settings: 25° C.
Description: Licarbazepine is indicated to be suitable for the treatment of psychosomatic disturbances, epilepsy, trigeminal neuralgia and cerebral spasticity. […] The mechanisms by which the compounds of the invention exert their anticonvulsant effects are not completely understood, but their activity may be partly due to effects on ion flow across neuronal membranes. However, pharmacokinetics, absorption sites and mechanisms of action of the compounds of the invention are not understood in detail. Licarbazepine is slightly soluble in water (3.2 mg/ml at 25° C.). In view of this physical property, a parenteral formulation of licarbazepine can be prepared as described, e. g., in EP-1 033 988. Despite the merits of the known parenteral dosage form, there remains a need to establish an advantageous oral dosage form of the compounds of the invention. One of the problems that may occur using an oral dosage form is the fluctuation of blood levels of the compounds of the invention on repeated administration, which may be associated with side effects.

Structure (SMILES): NC(=O)N1c2ccccc2CC(O)c2ccccc21 (racemic) [Licarbazepine, 10,11-dihydro-10-hydroxy-5H-dibenz[b,f]azepine-5-carboxamide]
- solubility: 3200 µg/mL (≈ 12.6 mM)

Reference: patent publication US20070190143A1, “Disintegrating tablets comprising licarb azepine” (priority 2004, published 2007)
